Among the data in patent publication US10160755B2 (Plexxikon Inc., priority 2015, dated 2018) are GI50 values, retold here.

The target of the assay is T1, BA/F3-FLT3-ITD + F691L cells (Homo sapiens, UniProt P36888, F691L, cells depend on it, form not given).
T1 sequence (P36888 1-993 F691L): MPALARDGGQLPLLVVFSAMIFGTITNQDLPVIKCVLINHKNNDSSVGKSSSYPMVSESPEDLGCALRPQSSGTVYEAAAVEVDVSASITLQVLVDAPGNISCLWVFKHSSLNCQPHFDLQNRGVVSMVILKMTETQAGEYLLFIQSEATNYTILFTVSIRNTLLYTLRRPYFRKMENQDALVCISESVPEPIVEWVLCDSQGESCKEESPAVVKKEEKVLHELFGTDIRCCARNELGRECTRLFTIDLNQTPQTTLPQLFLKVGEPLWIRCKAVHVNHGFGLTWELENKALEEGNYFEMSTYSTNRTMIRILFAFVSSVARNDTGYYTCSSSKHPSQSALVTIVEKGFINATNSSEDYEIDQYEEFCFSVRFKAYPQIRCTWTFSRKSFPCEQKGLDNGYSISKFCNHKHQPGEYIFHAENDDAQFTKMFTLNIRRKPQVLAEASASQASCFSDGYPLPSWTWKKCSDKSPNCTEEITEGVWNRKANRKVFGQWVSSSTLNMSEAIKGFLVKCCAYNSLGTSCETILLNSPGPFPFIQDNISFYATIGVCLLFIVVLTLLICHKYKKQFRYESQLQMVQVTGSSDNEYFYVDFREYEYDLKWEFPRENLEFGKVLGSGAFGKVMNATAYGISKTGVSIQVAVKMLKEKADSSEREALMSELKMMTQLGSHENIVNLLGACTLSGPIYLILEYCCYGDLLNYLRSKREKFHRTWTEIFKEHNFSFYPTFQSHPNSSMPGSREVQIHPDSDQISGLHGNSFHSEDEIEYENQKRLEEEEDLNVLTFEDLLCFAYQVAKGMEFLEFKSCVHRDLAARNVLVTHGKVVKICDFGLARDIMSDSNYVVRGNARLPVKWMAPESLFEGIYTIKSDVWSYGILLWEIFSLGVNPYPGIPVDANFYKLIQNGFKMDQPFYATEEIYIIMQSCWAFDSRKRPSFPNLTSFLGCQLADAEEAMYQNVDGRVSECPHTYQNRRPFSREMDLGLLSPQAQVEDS
Description: BA/F3-FLT3-ITD + F691L cell proliferation assay (CellTiter-Glo). The class given is cell-based, murine. The conditions noted are these: BaF3 FLT3 ITD/F691L cells; read-out: Cell Activity (IC50 μM) BaF3_FLT3_ITD/F691L. An outline of the steps:
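Three-day growth assay, IC50 from CellTiter-Glo ATP luminescence vs concentration. Compounds at 10 to 0.0046 μM (1:3 steps, final DMSO 0.2%) on 1×10^4 cells/well. Cells are IL-3-independent BA/F3 lines engineered to express full-length FLT3-ITD with the D835Y or the F691L mutation.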

`COc1ncc(-c2cnc3[nH]cc(-c4ccc5ncn(C6CCCNC6)c5c4)c3n2)cn1` (centres unmarked) [P-264, 2-(2-methoxypyrimidin-5-yl)-7-[3-(3-piperidyl)benzimidazol-5-yl]-5H-pyrrolo[2,3-b]pyrazine]: the GI50 fell in the range of 0.0001 to 1 µM. To `COc1ncccc1C#Cc1cnc2[nH]cc(-c3ccc4ncn(C(C)(C)C)c4c3)c2n1` [P-250, 7-(3-tert-butylbenzimidazol-5-yl)-2-[2-(2-methoxy-3-pyridyl)ethynyl]-5H-pyrrolo[2,3-b]pyrazine] belongs 0.0001 to 1 µM; to `COc1cnc2[nH]cc(-c3ccc4ncn(Cc5ccc(F)cc5)c4c3)c2c1` [P-110, 1-[(4-fluorophenyl)methyl]-6-(5-methoxy-1H-pyrrolo[2,3-b]pyridin-3-yl)benzimidazole], 0.0001 to 1 µM; to `COc1cnc2[nH]cc(-c3ccc4ncn(-c5ccc(Cl)cc5)c4c3)c2c1` [P-104, 1-(4-chlorophenyl)-6-(5-methoxy-1H-pyrrolo[2,3-b]pyridin-3-yl)benzimidazole], 0.0001 to 1 µM. As for `N#Cc1cccc(C#Cc2cnc3[nH]cc(-c4ccc5ncn(C6CCCNC6)c5c4)c3c2)c1` (centres unmarked) [P-243, 3-[2-[3-[3-(3-piperidyl)benzimidazol-5-yl]-1H-pyrrolo[2,3-b]pyridin-5-yl]ethynyl]benzonitrile], the GI50 lay within 0.0001 to 1 µM. On to `N#Cc1cccc(-c2cnc3[nH]cc(-c4ccc5ncn(-c6ccc(F)c(Cl)c6)c5c4)c3c2)c1` [P-210, 3-[3-[3-(3-chloro-4-fluoro-phenyl)benzimidazol-5-yl]-1H-pyrrolo[2,3-b]pyridin-5-yl]benzonitrile], for which the GI50 lay in the range of 0.0001 to 1 µM. On to `N#Cc1cc(-c2cnc3[nH]cc(-c4ccc5ncn(C6CCCNC6)c5c4)c3n2)ccc1F` (centres unmarked) [P-238, 2-fluoro-5-[7-[3-(3-piperidyl)benzimidazol-5-yl]-5H-pyrrolo[2,3-b]pyrazin-2-yl]benzonitrile], for which the GI50 was in the range of 0.0001 to 1 µM. The result for `C#Cc1cnc2[nH]cc(-c3ccc4ncn(C(C)(C)C)c4c3)c2n1` [P-259, 7-(3-tert-butylbenzimidazol-5-yl)-2-ethynyl-5H-pyrrolo[2,3-b]pyrazine] reads 0.0001 to 1 µM; that for `CC(C)(C)n1cnc2ccc(-c3c[nH]c4ncc(-c5ccnc(N6CCOCC6)c5)nc34)cc21` [P-228, 4-[4-[7-(3-tert-butylbenzimidazol-5-yl)-5H-pyrrolo[2,3-b]pyrazin-2-yl]-2-pyridyl]morpholine], 0.0001 to 1 µM. To `COc1cnc2[nH]cc(-c3cnc4ncn(Cc5cc(C)on5)c4c3)c2c1` [P-144, 3-[[6-(5-methoxy-1H-pyrrolo[2,3-b]pyridin-3-yl)imidazo[4,5-b]pyridin-1-yl]methyl]-5-methyl-isoxazole] belongs 0.0001 to 1 µM. To `c1cc(-c2cnc3[nH]cc(-c4ccc5ncn(C6CCCNC6)c5c4)c3n2)cc(N2CCOCC2)n1` (centres unmarked) [P-262, 4-[4-[7-[3-(3-piperidyl)benzimidazol-5-yl]-5H-pyrrolo[2,3-b]pyrazin-2-yl]-2-pyridyl]morpholine] belongs 0.0001 to 1 µM; to `CC(C)n1cnc2ccc(-c3c[nH]c4ncc(-c5cnn(CC(F)(F)F)c5)cc34)cc21` [P-268, 1-isopropyl-6-[5-[1-(2,2,2-trifluoroethyl)pyrazol-4-yl]-1H-pyrrolo[2,3-b]pyridin-3-yl]benzimidazole], 0.0001 to 1 µM; to `CC(C)(C)n1cnc2ccc(-c3c[nH]c4ncc(-c5ccc(N6CCOCC6)cc5)nc34)cc21` [P-100, 4-[4-[7-(3-tert-butylbenzimidazol-5-yl)-5H-pyrrolo[2,3-b]pyrazin-2-yl]phenyl]morpholine], 0.0001 to 1 µM. In the case of `COc1cc(-c2cnc3[nH]cc(-c4ccc5ncn(C(C)C)c5c4)c3n2)ccn1` [P-113, 7-(3-isopropylbenzimidazol-5-yl)-2-(2-methoxy-4-pyridyl)-5H-pyrrolo[2,3-b]pyrazine], the GI50 lay within 0.0001 to 1 µM. For the molecule `COc1ncc(-c2cnc3[nH]cc(-c4ccc5ncn(C(C)(C)C)c5c4)c3n2)cn1` [P-263, 7-(3-tert-butylbenzimidazol-5-yl)-2-(2-methoxypyrimidin-5-yl)-5H-pyrrolo[2,3-b]pyrazine], the GI50 lay in the range of 0.0001 to 1 µM. To `CC(C)(C)n1cnc2ccc(-c3c[nH]c4ncc(-c5cnn(C(F)F)c5)nc34)cc21` [P-255, 7-(3-tert-butylbenzimidazol-5-yl)-2-[1-(difluoromethyl)pyrazol-4-yl]-5H-pyrrolo[2,3-b]pyrazine] belongs 0.0001 to 1 µM; to `COc1cnc2[nH]cc(-c3ccc4ncn(-c5cccc(C#N)c5)c4c3)c2c1` [P-135, 3-[6-(5-methoxy-1H-pyrrolo[2,3-b]pyridin-3-yl)benzimidazol-1-yl]benzonitrile], 0.0001 to 1 µM; to `C(#Cc1cnc2[nH]cc(-c3ccc4ncn(C5CCCNC5)c4c3)c2n1)c1ccccc1` (centres unmarked) [P-248, 2-(2-phenylethynyl)-7-[3-(3-piperidyl)benzimidazol-5-yl]-5H-pyrrolo[2,3-b]pyrazine], 0.0001 to 1 µM. On to `COc1cc(C(=O)Nc2cnc3[nH]cc(-c4ccc5ncn(C(C)(C)C)c5c4)c3c2)ccn1` [P-245, N-[3-(3-tert-butylbenzimidazol-5-yl)-1H-pyrrolo[2,3-b]pyridin-5-yl]-2-methoxy-pyridine-4-carboxamide], for which the GI50 is 0.0001 to 1 µM. The result for `CC(C)(C)n1cnc2ccc(-c3c[nH]c4ncc(-c5cccc(N6CCCCS6(=O)=O)c5)cc34)cc21` [P-221, 2-[3-[3-(3-tert-butylbenzimidazol-5-yl)-1H-pyrrolo[2,3-b]pyridin-5-yl]phenyl]thiazinane 1,1-dioxide] reads 0.0001 to 1 µM; that for `O=S1(=O)CCCN1c1cccc(-c2cnc3[nH]cc(-c4ccc5ncn(C6CCCNC6)c5c4)c3n2)c1` (centres unmarked) [P-273, 2-[3-[7-[3-(3-piperidyl)benzimidazol-5-yl]-5H-pyrrolo[2,3-b]pyrazin-2-yl]phenyl]-1,2-thiazolidine 1,1-dioxide], 0.0001 to 1 µM. For the molecule `CC(C)(C)n1cnc2ccc(-c3c[nH]c4ncc(-c5cccc(S(=O)(=O)N6CCCC6)c5)cc34)cc21` [P-220, 1-tert-butyl-6-[5-(3-pyrrolidin-1-ylsulfonylphenyl)-1H-pyrrolo[2,3-b]pyridin-3-yl]benzimidazole], the GI50 lay in the range of 0.0001 to 1 µM. On to `FC(F)(F)Oc1cccc(C#Cc2cnc3[nH]cc(-c4ccc5ncn(C6CCCNC6)c5c4)c3n2)c1` (centres unmarked) [P-246, 7-[3-(3-piperidyl)benzimidazol-5-yl]-2-[2-[3-(trifluoromethoxy)phenyl]ethynyl]-5H-pyrrolo[2,3-b]pyrazine], for which the GI50 is 1 to 10 µM.
